Laboratory results reported in patent US11304944B2, “MetAP2 inhibitors and methods of treating obesity” (SynDevRx, Inc., priority 2013, dated 2022).
Structures can show the parent of a compound that is named as a salt.

melting point: 180 to 185 °C
Structure (SMILES): COC1C(OC(=O)N[C@H]2CC[C@H](N)CC2)CC[C@]2(CO2)C1[C@@]1(C)O[C@@H]1CC=C(C)C (stereo partly drawn) (as salt: tartrate) [Compound 1, Fumagill-6-yl [trans-(4-aminocyclohexyl)]carbamate]
